Here are results for one compound from article PMC5423648, “Acetyl group coordinated progression through the catalytic cycle of an arylalkylamine N-acetyltransferase” (PLoS ONE, 2017).

For this experiment, the target named is T1, DAT (Drosophila melanogaster, UniProt Q94521).
T1 construct: gene speck; construct, tags and host of the DAT used for ITC not described
The experiment can be described thus: ITC. It is filed as binding.

As a reminder, the Kd is the concentration at which binding is half-saturated. A higher Kd goes with lower affinity.

T1 sequence (Q94521 36-275): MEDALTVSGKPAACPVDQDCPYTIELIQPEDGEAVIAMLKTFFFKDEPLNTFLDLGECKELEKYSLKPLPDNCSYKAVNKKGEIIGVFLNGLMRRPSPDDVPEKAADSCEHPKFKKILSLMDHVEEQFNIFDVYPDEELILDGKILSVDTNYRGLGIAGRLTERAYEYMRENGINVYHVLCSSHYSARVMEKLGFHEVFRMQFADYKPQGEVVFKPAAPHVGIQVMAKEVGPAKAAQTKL

With `CC(=O)SCCNC(=O)CCNC(=O)[C@H](O)C(C)(C)COP(=O)(O)OP(=O)(O)OC[C@H]1O[C@@H](n2cnc3c(N)ncnc32)[C@H](O)[C@@H]1OP(=O)(O)O` [acetyl-CoA], the Kd was found to be 3.7 ± 0.1 µM.
